Measured values from patent publication US20090227493A1, “COMBINED DRUG FOR TREATING DIABETES” (DAIICHI SANKYO COMPANY, LIMITED, priority 2005, published 2009).

Assays:
[1] = system: diabetic obese rats (male ZDF rats); test: Test Example 2: effect of combined use of various GLP-1 receptor agonists and compound A, same manner as Test Example 1; conditions: combined use with compound A
[2] = system: diabetic obese rats (male ZDF rats); test: Test Example 1: effect of combined use of GLP-1 (7-36) amide and compound A; type: in vivo, rat; conditions: from start of treatment to 57 days; FIG. 1-C
Source text: In this test, commercially available diabetic obese rats (male ZDF rats, 8 weeks old at the start of administration, purchased from Charles River Laboratories Japan, Inc.) were used. ZDF rats used in this test were acclimatized to the feeding time from 9:30 to 16:30 from one week before the start of treatment.
Rats were divided into four groups: the control group, compound A treatment group (group A), GLP-1 (7-36) amide treatment group (group B), and compound A plus GLP-1 (7-36) amide treatment group (group C).
The control group and group B were allowed free access to a powder feed (FR-2: Funabashi Farms Co., Ltd.) from 9:30 to 16:30. […] The dose of compound A was calculated as 16.1 μg/kg/day based on the food intake during this period. […]
Glycosylated hemoglobin (HbA1c) levels were measured at 42 days after the start of treatment, and blood sugar levels in full feeding were measured at 47 days. […]
Furthermore, insulin in the pancreas was extracted by the hydrochloric acid-ethanol method (Diabetelogia, Vol. 27, pp. 454-459 [1984]), and the insulin concentration in the extract was determined by using a rat insulin RIA kit manufactured by Linco Research, Inc. to obtain the pancreatic insulin content. […]
Blood was collected from the caudal vein of the rats, and blood sugar levels were measured with Glucoroder GXT (A & T Corporation). HbA1c levels were measured with DC2000 (Bayer Medical Ltd.).

Row | Compound | weight gain by compound A [1] | increases in body weight (weight gain) [2] | decrease in HbA1c levels [1] | pancreatic insulin content [1]
1 | CCCCCCCCCCCCCCCC(=O)N[C@@H](CCC(=O)NCCCC[C@H](NC(=O)[C@H](C)NC(=O)[C@H](C)NC(=O)[C@H](CCC(N)=O)NC(=O)CNC(=O)[C@H](CCC(=O)O)NC(=O)[C@H](CC(C)C)NC(=O)[C@H](Cc1ccc(O)cc1)NC(=O)[C@H](CO)NC(=O)[C@H](CO)NC(=O)[C@@H](NC(=O)[C@H](CC(=O)O)NC(=O)[C@H](CO)NC(=O)[C@@H](NC(=O)[C@H](Cc1ccccc1)NC(=O)[C@@H](NC(=O)CNC(=O)[C@H](CCC(=O)O)NC(=O)[C@H](C)NC(=O)[C@@H](N)Cc1cnc[nH]1)[C@@H](C)O)[C@@H](C)O)C(C)C)C(=O)N[C@@H](CCC(=O)O)C(=O)N[C@@H](Cc1ccccc1)C(=O)N[C@H](C(=O)N[C@@H](C)C(=O)N[C@@H](Cc1c[nH]c2ccccc12)C(=O)N[C@@H](CC(C)C)C(=O)N[C@H](C(=O)N[C@@H](CCCNC(=N)N)C(=O)NCC(=O)N[C@@H](CCCNC(=N)N)C(=O)NCC(=O)O)C(C)C)[C@@H](C)CC)C(=O)O [Arg^34 Lys^26(N^6-(γ-L-glutamyl(N^α-palmitoyl))) GLP-1 (7-37)] | suppressing | – | – | –
2 | COc1ccc2nc(COc3ccc(CC4SC(=O)NC4=O)cc3)n(C)c2c1 (centres unmarked) [compound A, 5-[4-(6-Methoxy-1-methyl-1H-benzimidazol-2-ylmethoxy)benzyl]thiazolidine-2,4-dione] | – | weight gain | – | –
3 | exendin 3 | suppressing | – | synergistic effect | marked increase
